Experimental data: PubChem BioAssay (NCI)
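Assay format: 96-well plates, 48-hour exposure. TGI denotes the concentration required for complete inhibition of growth.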

Legend:
Experiment in all cases: inhibition of tumour cell growth, NCI panel, 48 h
[1] = test system: NCI-H460 lung
[2] = test system: NCI-H522 lung
[3] = test system: MDA-N
[4] = test system: LOX IMVI melanoma
[5] = test system: SN12C renal
[6] = test system: U251 CNS
[7] = test system: MDA-MB-435
[8] = test system: SK-MEL-5 melanoma
[9] = test system: A549 NSCLC
[10] = test system: PC-3 prostate
[11] = test system: SK-OV-3 ovarian
[12] = test system: HCT-15 colon
[13] = test system: DU-145 prostate
[14] = test system: SW-620 colon
[15] = test system: TK-10 renal
[16] = test system: SR leukemia
[17] = test system: OVCAR-4 ovarian
[18] = test system: CAKI-1 renal
[19] = test system: COLO 205 colon
[20] = test system: MDA-MB-231 breast
[21] = test system: NCI-H23 lung
[22] = test system: MOLT-4 leukemia
[23] = test system: CCRF-CEM leukemia
[24] = test system: NCI/ADR-RES ovarian
[25] = test system: EKVX NSCLC
[26] = test system: SNB-75 CNS
[27] = test system: ACHN renal
[28] = test system: HL-60(TB) leukemia
[29] = test system: HT29 colon
[30] = test system: OVCAR-8 ovarian
[31] = test system: SF-268 CNS
[32] = test system: SK-MEL-2 melanoma
[33] = test system: SF-539 CNS
[34] = test system: SK-MEL-28 melanoma
[35] = test system: BT-549 breast
[36] = test system: MALME-3M melanoma
[37] = test system: OVCAR-3 ovarian
[38] = test system: RPMI-8226 leukemia
[39] = test system: HCT-116 colon
[40] = test system: A498 renal
[41] = test system: OVCAR-5 ovarian
[42] = test system: K-562 leukemia
[43] = test system: SNB-19 CNS
[44] = test system: HOP-92 NSCLC
[45] = test system: M14 melanoma
[46] = test system: KM12 colon
[47] = test system: HS 578T breast
[48] = test system: UACC-257 melanoma
[49] = test system: NCI-H226 lung
[50] = test system: UO-31 renal
[51] = test system: HOP-62 NSCLC
[52] = test system: IGROV1 ovarian
[53] = test system: UACC-62 melanoma
[54] = test system: 786-0 renal
[55] = test system: SF-295 CNS
[56] = test system: MCF7 breast
[57] = test system: HCC-2998 colon
[58] = test system: T-47D breast

NC(=O)CO/N=C1/C(c2c(O)[nH]c3ccccc23)=Nc2ccccc21
TGI [1]: > 100 µM
TGI [2]: > 100 µM
TGI [3]: > 100 µM
TGI [4]: > 100 µM
TGI [5]: > 100 µM
TGI [6]: > 100 µM
TGI [7]: > 100 µM
TGI [8]: > 100 µM
TGI [9]: > 100 µM
TGI [10]: > 100 µM
TGI [11]: > 100 µM
TGI [12]: > 100 µM
TGI [13]: > 100 µM
TGI [14]: > 100 µM
TGI [15]: > 100 µM
TGI [16]: > 56.9 µM
TGI [17]: > 100 µM
TGI [18]: > 100 µM
TGI [19]: > 100 µM
TGI [20]: > 100 µM
TGI [21]: > 100 µM
TGI [22]: > 100 µM
TGI [23]: > 100 µM
TGI [24]: > 100 µM
TGI [25]: > 100 µM
TGI [26]: > 100 µM
TGI [27]: > 100 µM
TGI [28]: > 100 µM
TGI [29]: > 100 µM
TGI [30]: > 100 µM
TGI [31]: > 100 µM
TGI [32]: > 100 µM
TGI [33]: > 100 µM
TGI [34]: > 100 µM
TGI [35]: > 100 µM
TGI [36]: > 100 µM
TGI [37]: > 100 µM
TGI [38]: > 100 µM
TGI [39]: > 100 µM
TGI [40]: > 100 µM
TGI [41]: > 100 µM
TGI [42]: > 100 µM
TGI [43]: > 100 µM
TGI [44]: > 100 µM
TGI [45]: > 100 µM
TGI [46]: > 100 µM
TGI [47]: > 100 µM
TGI [48]: > 100 µM
TGI [49]: > 100 µM
TGI [50]: > 100 µM
TGI [51]: > 100 µM
TGI [52]: > 100 µM
TGI [53]: > 100 µM
TGI [54]: > 100 µM
TGI [55]: > 100 µM

COC(=O)CCCC(=O)NC1=C(NCc2ccccc2)C(=O)c2ccccc2C1=O
TGI [1]: > 100 µM
TGI [2]: > 100 µM
TGI [3]: > 100 µM
TGI [4]: > 100 µM
TGI [5]: > 100 µM
TGI [6]: > 100 µM
TGI [7]: > 100 µM
TGI [56]: > 100 µM
TGI [9]: > 100 µM
TGI [11]: > 100 µM
TGI [12]: > 100 µM
TGI [13]: > 100 µM
TGI [14]: > 100 µM
TGI [15]: > 100 µM
TGI [16]: > 100 µM
TGI [17]: > 100 µM
TGI [18]: > 100 µM
TGI [19]: > 100 µM
TGI [20]: > 100 µM
TGI [21]: > 100 µM
TGI [22]: > 100 µM
TGI [23]: > 100 µM
TGI [24]: > 100 µM
TGI [25]: > 100 µM
TGI [26]: > 100 µM
TGI [27]: > 100 µM
TGI [28]: 77.3 µM
TGI [30]: > 100 µM
TGI [31]: > 100 µM
TGI [32]: > 100 µM
TGI [33]: > 100 µM
TGI [57]: > 100 µM
TGI [34]: > 100 µM
TGI [35]: 93.8 µM
TGI [36]: 37.7 µM
TGI [37]: 90.6 µM
TGI [38]: > 100 µM
TGI [39]: > 100 µM
TGI [40]: > 100 µM
TGI [58]: > 100 µM
TGI [41]: > 100 µM
TGI [42]: > 100 µM
TGI [43]: > 100 µM
TGI [45]: > 100 µM
TGI [46]: > 100 µM
TGI [47]: > 100 µM
TGI [48]: 89.7 µM
TGI [50]: > 100 µM
TGI [52]: > 100 µM
TGI [53]: > 100 µM
TGI [54]: > 100 µM
